Reference: patent US20220087960A1, “Oral Pharmaceutical Immediate Release Composition” (Aardvark Therapeutics Inc., priority 2020, published 2022)
“Also recorded” adds a separate entry of the source.

Experiments:
[1] = test system: diet-induced obesity (DIO) mouse model; experiment: 56-day DIO mouse weight loss study comparing DA and DB (Example 3); format: in vivo; conditions: DIO mice
From the text: The 56-day study determined the behavioral effects of bitter taste receptor agonists denatonium acetate (DA) compared to denatonium benzoate (DB) in a diet-induced obesity (DIO) mouse model. […] The study duration was a 3-5 day acclimation period+[…] study period and 2-3 day testing period after study. […] The mice were C57BL/6NTad mice at least 12 weeks in age and 15 mice per group (low dose DA, higher dose DA, high dose DB and control). […] Metabolic biomarkers (blood glucose, blood insulin, blood HbA1c) were measured at the beginning and end of the study. The DA, DB or distilled water control was administered per ostium gavage (PO) at a volume of 5 mL/kg body weight.

male Sprague Dawley rats = experiment: 24 hour food intake study in rats comparing DA to DB (Example 4); format: in vivo, rat; conditions: gavage, DA high dose 23.1 mg/kg
Method: This example provides a 24 hour study comparing DA to DB is rats (male Sprague Dawley, Charles River) over a 24 hour period. The […] of 15 rats each were vehicle controlled distilled water gavage QID, DB at a dose of 26.8 mg/kg gavage QID, DA low dose 2.9 mg/kg gavage QD, and DA high dose 23.1 mg/kg gavage QD. Food intake at 2 hr, 4 hr, 6 hr, 8 hr and 24 hr after administration was measured.

male SD rats = experiment: Single oral dose food intake study, 24-hour observational period (Example 6, first in vivo study); parameters: species or system rat
Method: This example compares efficacy of DA versus DB in food inhibition and body weight control. As a background, according to Avau et al., Sci. Rep. […] In our first in vivo study, 45 male SD rats (purchased from Envigo at 8-10 weeks of age) were divided into three groups (15 in each group), which were administered a single oral dose of vehicle (distilled water), 26.8 mg/kg of DB, or 23.1 mg/kg of DA respectively, with a 24-hour observational period, to compare the efficacy of DB versus DA in reducing food intake. Table 4. Mean cumulative food intake during 24-h observational period

male C57BL/6N DIO mice = experiment: 56-day BID treatment, food consumption and body weight in DIO mice (Example 6, second in vivo study); parameters: species or system mouse
Method: In a second in vivo study, 45 male C57BL/6N DIO mice (purchased from Envigo at 18 weeks of age, fed with high-fat diet) were divided into three groups (15 in each group), which were orally administered vehicle (distilled water), 26.8 mg/kg of DB, or 23.1 mg/kg of DA respectively, twice daily (BID), with a 56-day treatment period to compare the efficacy of DB versus DA in food intake reduction and body weight control. Briefly, once weekly, the food weight for each cage was recorded at 0 hour and then 24 hours later, permitting calculation of food consumption for that 24-hour interval. In addition, starting from Day 0, the mice were weighed three times weekly (every 2-3 days).

in vivo = conditions: both, Sprague Dawley, rat, po
Method: (§1) The drugs were administered to Sprague Dawley rats with a 14-day observational period. Twenty-four Male Sprague Dawley (SD) rats and 24 female SD rats were purchased from Envigo at 8-10 weeks of age. The DA group had four dose levels (120, 360, 1000, and 2000 mg/kg, single administration by oral gavage), 3 rats per sex, 6 animals in total per dose level; and the DB group: four dose levels (120, 360, 1000, and 2000 mg/kg, single administration by oral gavage), 3 rats per sex, 6 animals in total per dose level. The estimated median lethal dose (LD50) was determined by a nonlinear regression [model: Y=100/(1+10^(LogEC50-X)), Hill slope=1.0) to calculate LD50.

Sprague Dawley rats = experiment: in vivo; conditions: rat, po
Method: as §1

CC(=O)[O-].CC[N+](CC)(CC(=O)Nc1c(C)cccc1C)Cc1ccccc1 [DA, Denatonium acetate]
body weights at the indicated days (FIG. 1) ([1]; 56 day study, DA 23.1 mg/kg BID PO): lowest average body weights
body weight changes of the 56 day study (FIG. 2) ([1]; DA 23.1 mg/kg BID PO compared with DB 26.8 mg/kg BID): lowest increase in body weight; also recorded: weight loss improvement of higher dose DA over higher dose DB
serum insulin at the end of the 56 day study (FIG. 3) ([1]; DA 23.1 mg/kg BID PO, compared with pre-treatment and vehicle): close to baseline value
cumulative food consumption over 24 hours (FIG. 5) (male Sprague Dawley rats): largest impact
food intake reduction, DA compared with DB (male SD rats; 23.1 mg/kg DA vs 26.8 mg/kg DB): a greater food intake reduction
Mean cumulative food intake 0-2 h (male SD rats; single oral dose (DA 23.1 mg/kg, DB 26.8 mg/kg), 0-2 h, N = 15): 4.7 gram
Mean cumulative food intake 0-4 h (male SD rats; single oral dose (DA 23.1 mg/kg, DB 26.8 mg/kg), 0-4 h, N = 15): 7.3 gram
Mean cumulative food intake 0-6 h (male SD rats; single oral dose (DA 23.1 mg/kg, DB 26.8 mg/kg), 0-6 h, N = 15): 10.3 gram
Mean cumulative food intake 0-8 h (male SD rats; single oral dose (DA 23.1 mg/kg, DB 26.8 mg/kg), 0-8 h, N = 15): 12.5 gram
Mean cumulative food intake 0-24 h (male SD rats; single oral dose (DA 23.1 mg/kg, DB 26.8 mg/kg), 0-24 h, N = 15): 20.2 gram
cumulative food intake as compared with vehicle (male SD rats; single oral dose, all indicated time intervals): reduced cumulative food intake during all the indicated time intervals as compared with vehicle
body weight gain as compared to vehicle treatment (male C57BL/6N DIO mice; DIO mice on high-fat diet, 26.8 mg/kg DB or 23.1 mg/kg DA BID): less body weight gain as compared to vehicle treatment
Mean food consumption per animal for 24-h interval, Day 0 (male C57BL/6N DIO mice; DIO mice, BID oral (DA 23.1 mg/kg, DB 26.8 mg/kg), Day 0): 2.2 gram
Mean food consumption per animal for 24-h interval, Day 7 (male C57BL/6N DIO mice; DIO mice, BID oral (DA 23.1 mg/kg, DB 26.8 mg/kg), Day 7): 1.7 gram
Mean food consumption per animal for 24-h interval, Day 14 (male C57BL/6N DIO mice; DIO mice, BID oral (DA 23.1 mg/kg, DB 26.8 mg/kg), Day 14): 1.9 gram
Mean food consumption per animal for 24-h interval, Day 21 (male C57BL/6N DIO mice; DIO mice, BID oral (DA 23.1 mg/kg, DB 26.8 mg/kg), Day 21): 2.3 gram
Mean food consumption per animal for 24-h interval, Day 28 (male C57BL/6N DIO mice; DIO mice, BID oral (DA 23.1 mg/kg, DB 26.8 mg/kg), Day 28): 2.0 gram
Mean food consumption per animal for 24-h interval, Day 35 (male C57BL/6N DIO mice; DIO mice, BID oral (DA 23.1 mg/kg, DB 26.8 mg/kg), Day 35): 2.4 gram
Mean food consumption per animal for 24-h interval, Day 42 (male C57BL/6N DIO mice; DIO mice, BID oral (DA 23.1 mg/kg, DB 26.8 mg/kg), Day 42): 2.0 gram
Mean food consumption per animal for 24-h interval, Day 49 (male C57BL/6N DIO mice; DIO mice, BID oral (DA 23.1 mg/kg, DB 26.8 mg/kg), Day 49): 2.3 gram
Mean food consumption per animal for 24-h interval, Day 56 (male C57BL/6N DIO mice; DIO mice, BID oral (DA 23.1 mg/kg, DB 26.8 mg/kg), Day 56): 1.7 gram
Mean normalized body weight (% of baseline), study day 0 (male C57BL/6N DIO mice; DIO mice, BID oral (DA 23.1 mg/kg, DB 26.8 mg/kg), day 0): 100.0 % of baseline
Mean normalized body weight (% of baseline), study day 4 (male C57BL/6N DIO mice; DIO mice, BID oral (DA 23.1 mg/kg, DB 26.8 mg/kg), day 4): 101.1 % of baseline
Mean normalized body weight (% of baseline), study day 7 (male C57BL/6N DIO mice; DIO mice, BID oral (DA 23.1 mg/kg, DB 26.8 mg/kg), day 7): 100.6 % of baseline
Mean normalized body weight (% of baseline), study day 9 (male C57BL/6N DIO mice; DIO mice, BID oral (DA 23.1 mg/kg, DB 26.8 mg/kg), day 9): 99.5 % of baseline
Mean normalized body weight (% of baseline), study day 11 (male C57BL/6N DIO mice; DIO mice, BID oral (DA 23.1 mg/kg, DB 26.8 mg/kg), day 11): 98.8 % of baseline
Mean normalized body weight (% of baseline), study day 14 (male C57BL/6N DIO mice; DIO mice, BID oral (DA 23.1 mg/kg, DB 26.8 mg/kg), day 14): 99.6 % of baseline
Mean normalized body weight (% of baseline), study day 16 (male C57BL/6N DIO mice; DIO mice, BID oral (DA 23.1 mg/kg, DB 26.8 mg/kg), day 16): 98.5 % of baseline
Mean normalized body weight (% of baseline), study day 18 (male C57BL/6N DIO mice; DIO mice, BID oral (DA 23.1 mg/kg, DB 26.8 mg/kg), day 18): 98.4 % of baseline
Mean normalized body weight (% of baseline), study day 21 (male C57BL/6N DIO mice; DIO mice, BID oral (DA 23.1 mg/kg, DB 26.8 mg/kg), day 21): 99.9 % of baseline
Mean normalized body weight (% of baseline), study day 23 (male C57BL/6N DIO mice; DIO mice, BID oral (DA 23.1 mg/kg, DB 26.8 mg/kg), day 23): 99.9 % of baseline
Mean normalized body weight (% of baseline), study day 25 (male C57BL/6N DIO mice; DIO mice, BID oral (DA 23.1 mg/kg, DB 26.8 mg/kg), day 25): 100.0 % of baseline
Mean normalized body weight (% of baseline), study day 28 (male C57BL/6N DIO mice; DIO mice, BID oral (DA 23.1 mg/kg, DB 26.8 mg/kg), day 28): 100.0 % of baseline
Mean normalized body weight (% of baseline), study day 30 (male C57BL/6N DIO mice; DIO mice, BID oral (DA 23.1 mg/kg, DB 26.8 mg/kg), day 30): 100.0 % of baseline
Mean normalized body weight (% of baseline), study day 32 (male C57BL/6N DIO mice; DIO mice, BID oral (DA 23.1 mg/kg, DB 26.8 mg/kg), day 32): 102.0 % of baseline
Mean normalized body weight (% of baseline), study day 34 (male C57BL/6N DIO mice; DIO mice, BID oral (DA 23.1 mg/kg, DB 26.8 mg/kg), day 34): 101.9 % of baseline
Mean normalized body weight (% of baseline), study day 36 (male C57BL/6N DIO mice; DIO mice, BID oral (DA 23.1 mg/kg, DB 26.8 mg/kg), day 36): 101.5 % of baseline
Mean normalized body weight (% of baseline), study day 39 (male C57BL/6N DIO mice; DIO mice, BID oral (DA 23.1 mg/kg, DB 26.8 mg/kg), day 39): 102.6 % of baseline
Mean normalized body weight (% of baseline), study day 41 (male C57BL/6N DIO mice; DIO mice, BID oral (DA 23.1 mg/kg, DB 26.8 mg/kg), day 41): 103.1 % of baseline
Mean normalized body weight (% of baseline), study day 46 (male C57BL/6N DIO mice; DIO mice, BID oral (DA 23.1 mg/kg, DB 26.8 mg/kg), day 46): 103.9 % of baseline
Mean normalized body weight (% of baseline), study day 49 (male C57BL/6N DIO mice; DIO mice, BID oral (DA 23.1 mg/kg, DB 26.8 mg/kg), day 49): 104.7 % of baseline
Mean normalized body weight (% of baseline), study day 51 (male C57BL/6N DIO mice; DIO mice, BID oral (DA 23.1 mg/kg, DB 26.8 mg/kg), day 51): 104.9 % of baseline
Mean normalized body weight (% of baseline), study day 53 (male C57BL/6N DIO mice; DIO mice, BID oral (DA 23.1 mg/kg, DB 26.8 mg/kg), day 53): 105.2 % of baseline
Mean normalized body weight (% of baseline), study day 56 (male C57BL/6N DIO mice; DIO mice, BID oral (DA 23.1 mg/kg, DB 26.8 mg/kg), day 56): 106.7 % of baseline
food consumption compared to vehicle-dosed mice (male C57BL/6N DIO mice; DIO mice, BID oral, 56-day treatment): nominally decreased food consumption compared to vehicle-dosed mice
body weight gain, DA compared with DB (male C57BL/6N DIO mice; DIO mice, Day 34 to Day 56): body weight gain was less
food consumption, DA compared with DB (male C57BL/6N DIO mice; DIO mice, all indicated measurement days except for Day 42): food consumption was less
LD50 at 14 day (in vivo): 945 mg/kg
MTD at 14 day (in vivo): 360 mg/kg
Mortality rate (Sprague Dawley rats; both, 120 mg/kg, 14 day): 0%
Mortality rate (Sprague Dawley rats; both, 360 mg/kg, 14 day): 0%
Mortality rate (Sprague Dawley rats; both, 1000 mg/kg, 14 day): 50%
Mortality rate (Sprague Dawley rats; both, 2000 mg/kg, 14 day): 100%
Estimated LD50 (Sprague Dawley rats; both, 14 day): 945 mg/kg
No. of animals died within 24 h post dosing (Sprague Dawley rats; female, 120 mg/kg): 0
No. of animals died within 24 h post dosing (Sprague Dawley rats; female, 360 mg/kg): 0
No. of animals died within 24 h post dosing (Sprague Dawley rats; female, 1000 mg/kg): 3
No. of animals died within 24 h post dosing (Sprague Dawley rats; female, 2000 mg/kg): 3
No. of animals died within 24 h post dosing (Sprague Dawley rats; male, 120 mg/kg): 0
No. of animals died within 24 h post dosing (Sprague Dawley rats; male, 360 mg/kg): 0
No. of animals died within 24 h post dosing (Sprague Dawley rats; male, 1000 mg/kg): 0
No. of animals died within 24 h post dosing (Sprague Dawley rats; male, 2000 mg/kg): 3
